US4226879A, “Antibiotic composition” (Kyowa Hakko Kogyo Kabushiki Kaisha, priority 1976, dated 1980)
Converted amounts (≈) assume the structure as drawn.

Assays:
[1] = test system: Aspergillus niger; experiment: MIC, agar dilution method; assay type: cell-based; conditions: pH 6.8, 27° C. 72 hours
[2] = test system: Micrococcus flavus 16; experiment: MIC, agar dilution method; assay type: cell-based; conditions: pH 7.0, 37° C., 18 hours
[3] = test system: Aerobacter aerogenes IAM 1183; experiment: MIC, agar dilution method; assay type: cell-based; conditions: Klebsiella aerogenes, IAM1183; pH 7.0, 37° C., 18 hours
[4] = test system: Piricularia oryzae; experiment: microbe, parasite or virus in culture; assay type: cell-based; conditions: 72 h, pH 6.8
[5] = test system: Escherchia coli NIHJ; experiment: MIC, agar dilution method; assay type: cell-based; conditions: pH 7.0, 37° C., 18 hours
[6] = test system: S. aureus KB-64 (tetracycline & erythromycin-resistant); experiment: MIC, agar dilution method; assay type: cell-based; conditions: Staphylococcus aureus; pH 7.0, 37° C., 18 hours
[7] = test system: Cryptococcus neoformans; experiment: MIC, agar dilution method; assay type: cell-based; conditions: pH 6.8, 27° C. 72 hours
[8] = test system: B. subtilis NRRL B-558; experiment: MIC, agar dilution method; assay type: cell-based; conditions: Bacillus subtilis, NRRLB558; pH 7.0, 37° C., 18 hours
[9] = test system: Sclerotinia cinerea; experiment: MIC, agar dilution method; assay type: cell-based; conditions: pH 6.8, 27° C. 72 hours
[10] = test system: Candida albicans; experiment: MIC, agar dilution method; assay type: cell-based; conditions: pH 6.8, 27° C. 72 hours
[11] = test system: Botrytis cinerea; experiment: MIC, agar dilution method; assay type: cell-based; conditions: pH 6.8, 27° C. 72 hours
[12] = test system: Eimeria tenella K-2, E. acervulina and E. maxima; experiment: anticoccidial test in chicks, mixed infection (Example 5); assay type: in vivo, E. maxima (in chicks); design: key to Caecal lession: -: not infected; +: light; ++: middle; +++: heavy; conditions: for RIW (ratio of the increase of the body weight): vs healthy chicks
Experimental: The results are shown in Table 5 where the ratio of the increase of the body weight (RIW) is calculated as follows: (RIW (%)=[weight at the completion of the test (in average)]/[weight of healthy chicks (control) in average]×100%.

[13] = test system: Eimeria brunetti; experiment: anticoccidial activity; assay type: in vivo
[14] = test system: Salmonella typhimurium; experiment: MIC, agar dilution method; assay type: cell-based; conditions: Salmonella enterica, pH 7.0, 37° C., 18 hours
[15] = test system: Sarcina lutea PCI 1001; experiment: MIC, agar dilution method; assay type: cell-based
[16] = test system: Proteus vulgaris IFO 3163; experiment: MIC, agar dilution method; assay type: cell-based; conditions: IFO3163, pH 7.0, 37° C., 18 hours
[17] = solubility in various solvents; assay type: physicochemical
[18] = test system: S. albus; experiment: MIC, agar dilution method; assay type: cell-based; conditions: pH 7.0, 37° C., 18 hours
Experimental: (§1) Table 1 indicates the antibacterial and antifungal activity of AM-1042 as minimum inhibitory concentration (mcg/ml) determined by the agar dilution method.
(§2) *Peptone 0.5%; meat extract 0.5%; agar 1.2% (pH 7.0), 37° C., 18

[19] = test system: B. agri; experiment: MIC, agar dilution method; assay type: cell-based; conditions: pH 7.0, 37° C., 18 hours
Experimental: as §1, §2

[20] = test system: Shigella sonnei E-33; experiment: MIC, agar dilution method; assay type: cell-based; conditions: E33, pH 7.0, 37° C., 18 hours
Experimental: as §1, §2

[21] = test system: E. coli B; experiment: MIC, agar dilution method; assay type: cell-based; conditions: Escherichia coli; pH 7.0, 37° C., 18 hours
Experimental: as §1, §2

[22] = test system: Staphylococcus aureus FDA 209P; experiment: MIC, agar dilution method; assay type: cell-based; conditions: FDA209P, pH 7.0, 37° C., 18 hours
[23] = test system: Eimeria acervulina; experiment: anticoccidial activity; assay type: in vivo
[24] = test system: Klebsiella pneumoniae PCI 602; experiment: MIC, agar dilution method; assay type: cell-based; conditions: PCI602, pH 7.0, 37° C., 18 hours
[25] = test system: Bacillus subtilis PCI 219; experiment: MIC, agar dilution method; assay type: cell-based; conditions: PCI219, pH 7.0, 37° C., 18 hours
[26] = test system: Eimeria tenella K-2; experiment: anticoccidial test in chicks (Example 4); conditions: for Caecal lession (numbers of chicks), +: grade + (light); for Caecal lession (numbers of chicks), + / Caecal lession (numbers of chicks), ++ / Caecal lession (numbers of chicks), +++ / Caecal lession (numbers of chicks), -: groups of 10 chicks; for Caecal lession (numbers of chicks), ++: grade ++ (middle); for Caecal lession (numbers of chicks), +++: grade +++ (heavy); for Caecal lession (numbers of chicks), -: grade - (not infected)
[27] = test system: Xanthomonas oryzae; experiment: microbe, parasite or virus in culture; assay type: cell-based; conditions: 72 h, pH 6.8
[28] = test system: Eimeria tenella; experiment: anticoccidial activity; assay type: in vivo
[29] = test system: B. anthracis; experiment: microbe, parasite or virus in culture; assay type: cell-based; conditions: Bacillus anthracis, 18 h, pH 7
[30] = test system: Pseudomonas aerginosa P-3; experiment: MIC, agar dilution method; assay type: cell-based; conditions: P3, pH 7.0, 37° C., 18 hours

Structure (SMILES): O=C(/C=C/C=C/C=C/C1CCCCC1)NC1=CC(O)(/C=C/C=C/C=C/C(=O)NC2=C(O)CCC2=O)C2OC2C1=O (stereo not shown) [AM-1042]
- MIC [1]: > 100 µg/mL
- MIC [2]: 1.5 µg/mL (≈ 2.74 µM)
- MIC [3]: 100 µg/mL (≈ 183 µM)
- MIC [4]: 100 µg/mL (≈ 183 µM)
- MIC [5]: 100 µg/mL (≈ 183 µM)
- MIC [6]: 6.2 µg/mL (≈ 11.3 µM)
- MIC [7]: > 100 µg/mL
- MIC [8]: > 100 µg/mL
- MIC [9]: 100 µg/mL (≈ 183 µM)
- MIC [10]: > 100 µg/mL
- MIC [11]: > 100 µg/mL
- Caecal lession ([12]; 0.005 % AM-1042 (Test-5)): +
- Survival ratio ([12]; 0.005 % AM-1042 (Test-5)): 90%
- RIW (ratio of the increase of the body weight) ([12]; 0.005 % AM-1042 (Test-5)): 98.7%
- Caecal lession ([12]; 0.0075 % AM-1042 (Test-4)): -
- Survival ratio ([12]; 0.0075 % AM-1042 (Test-4)): 100%
- RIW (ratio of the increase of the body weight) ([12]; 0.0075 % AM-1042 (Test-4)): 99.9%
- Caecal lession ([12]; 0.01 % AM-1042 (Test-3)): -
- Survival ratio ([12]; 0.01 % AM-1042 (Test-3)): 100%
- RIW (ratio of the increase of the body weight) ([12]; 0.01 % AM-1042 (Test-3)): 100.8%
- Caecal lession ([12]; 0.015 % AM-1042 (Test-2)): -
- Survival ratio ([12]; 0.015 % AM-1042 (Test-2)): 100%
- RIW (ratio of the increase of the body weight) ([12]; 0.015 % AM-1042 (Test-2)): 100.5%
- Caecal lession ([12]; 0.02 % AM-1042 (Test-1)): -
- Survival ratio ([12]; 0.02 % AM-1042 (Test-1)): 100%
- RIW (ratio of the increase of the body weight) ([12]; 0.02 % AM-1042 (Test-1)): 100.2%
- activity upon coccidiosis [13]: significantly active
- MIC [14]: > 100 µg/mL
- activity upon Sarcina lutea [15]: active
- MIC ([15]; Micrococcus luteus, PCI1001, pH 7.0, 37° C., 18 hours): 6.2 µg/mL (≈ 11.3 µM)
- MIC [16]: > 100 µg/mL
- solubility ([17]; in acetone): Soluble
- solubility ([17]; in chloroform): Soluble
- solubility ([17]; in dimethylformamide): Easily soluble
- solubility ([17]; in dimethylsulfoxide): Easily soluble
- solubility ([17]; in ethanol): Soluble
- solubility ([17]; in ethyl acetate): Soluble
- solubility ([17]; in fat): soluble in fat
- solubility ([17]; in methanol): Soluble
- solubility ([17]; in n-hexane): Insoluble
- solubility ([17]; in petroleum ether): Insoluble
- solubility ([17]; in water): Insoluble
- MIC [18]: 12.5 µg/mL (≈ 22.9 µM)
- MIC [19]: 12.5 µg/mL (≈ 22.9 µM)
- MIC [20]: > 100 µg/mL
- MIC [21]: > 100 µg/mL
- MIC [22]: 3.1 µg/mL (≈ 5.67 µM)
- activity upon coccidiosis [23]: significantly active
- MIC [24]: > 100 µg/mL
- MIC [25]: 3.1 µg/mL (≈ 5.67 µM)
- Survival ratio ([26]; 0.00375 % in diet): 90%
- Survival ratio ([26]; 0.005 % in diet): 90%
- Survival ratio ([26]; 0.0075 % in diet): 100%
- Survival ratio ([26]; 0.01 % in diet): 100%
- Survival ratio ([26]; 0.015 % in diet): 100%
- Survival ratio ([26]; 0.02 % in diet): 100%
- Survival ratio ([26]; 0.03 % in diet): 100%
- Caecal lession (numbers of chicks), + ([26]; 0.00375 % in diet): 1 numbers of chicks
- Caecal lession (numbers of chicks), + ([26]; 0.005 % in diet): 3 numbers of chicks
- Caecal lession (numbers of chicks), + ([26]; 0.0075 % in diet): 5 numbers of chicks
- Caecal lession (numbers of chicks), + ([26]; 0.01 % in diet): 2 numbers of chicks
- Caecal lession (numbers of chicks), ++ ([26]; 0.00375 % in diet): 4 numbers of chicks
- Caecal lession (numbers of chicks), ++ ([26]; 0.005 % in diet): 4 numbers of chicks
- Caecal lession (numbers of chicks), ++ ([26]; 0.0075 % in diet): 2 numbers of chicks
- Caecal lession (numbers of chicks), +++ ([26]; 0.00375 % in diet): 5 numbers of chicks
- Caecal lession (numbers of chicks), +++ ([26]; 0.005 % in diet): 3 numbers of chicks
- Caecal lession (numbers of chicks), - ([26]; 0.0075 % in diet): 3 numbers of chicks
- Caecal lession (numbers of chicks), - ([26]; 0.01 % in diet): 8 numbers of chicks
- Caecal lession (numbers of chicks), - ([26]; 0.015 % in diet): 10 numbers of chicks
- Caecal lession (numbers of chicks), - ([26]; 0.02 % in diet): 10 numbers of chicks
- Caecal lession (numbers of chicks), - ([26]; 0.03 % in diet): 10 numbers of chicks
- MIC [27]: > 100 µg/mL
- activity upon coccidiosis ([28]; Eimeria tenella, also when resistant to amprolium hydrochloride, clopidol, robenidine hydrochloride): significantly active
- reducing mortality of chicks ([28]; chicks infected with Eimeria tenella): effective in reducing mortality of chicks
- MIC [29]: 12.5 µg/mL (≈ 22.9 µM)
- MIC [30]: > 100 µg/mL
